Entries after “also recorded” stand apart in the source; their conditions may differ.

One series concerns RPMI-8226 cells. Description: Compartment-specific BLI-based ADCC cytotoxicity assay, RPMI-8226. The settings on record: 4 hours; for lysis of cells: daratumumab 0.3 μg/ml, YM155 1 nM, PBMC effector:target 40:1. It counts as cell-based, human. As for the experimental part: (§1) hBMSC were plated at a density of 1×10^4 cells/well in white opaque flat-bottomed 96-well plates (Costar) in 100 μl culture medium. After an adherence period of six hours, luc-transduced MM cell lines were added at a density of 1×10^4 cells/well in BMSC-coated or uncoated wells. In experiments in which YM155 was tested, YM155 was added at indicated concentrations together with MM cells. After 16-20 hours, daratumumab was added at indicated concentrations and left for 15 minutes at room temperature. Freshly isolated PBMC from healthy individuals were then added as effector cells at the indicated effector target ratios. 4 hours after addition of PBMC, 125 μg/ml beetle luciferin (Promega) was added and the bioluminescent signal emitted from surviving MM cells was determined within 20 minutes using a luminometer (SpectraMax, Molecular Devices). The percentage survival of MM cells was calculated using the formula: % survival=(mean bioluminescent signal in the absence of PBMCs/mean bioluminescent signal in the presence of PBMCs)×100%. In these assays the survival of MM cells is a direct reflection of ADCC mediated lysis and correlates with classical chromium release assays as described in McMillin et al., Nat Med 16:483-489, 2010.
Induction of ADCC by healthy donor BMSCs against two CD38^+ luciferase transduced MM cell lines, UM9 and RPMI was tested with serial concentrations of daratumumab in the presence or absence of HD-PBMCs as effector cells in compartment-specific BLI-based cytotoxicity assays.
In the assays, daratumumab and YM155 were used at a concentration of 0.3 μg/ml and 1 nM, respectively, for RPMI-8226 cells and at a concentration of 1 μg/ml and 120 nM for MM patient samples, respectively. Healthy donor PBMCs were used as effector cells at effector:target cell ratio of 40:1 for RPMI-8226 cells and 30:1 for MM patient samples.

Series [1] deals with NK cells (CD3−CD138−CD56+ cells). Description: Effect of YM155 on NK cell viability by FACS. It counts as cell-based, human. The settings on record: 24 hours. As to the method:
FIG. 3. […] HD-PBMCs and patient bone marrow mononuclear cells (BMMNCs) were incubated with the indicated concentrations of YM155 for 24 hours. The number of viable CD3^−CD56^+ NK cells was determined by flow cytometry and the percent lysis was calculated using the untreated samples as negative control. Effect of YM155 on NK cell viability was evaluated first. BM-MNCs of MM patients were cultured in the presence of different doses of YM155 for 24 hours. Viability of MM cells (CD138^+ cells) and NK cells (CD3^−CD138^−CD56^+ cells) were determined by FACS.

The next series has as its system MM cell line UM9. Description: In vivo tumor targeting, UM9 in humanized BM-like scaffolds. The settings on record: UM9 scaffolds s.c.; YM155 1 mg/kg/d for 10 days by s.c. infusion pump; T cell-depleted HD-PBMCs given. More on the design: species or system RAG2−/−γc−/− mice. The source says:
FIG. 5. Antitumor effect of daratumumab and YM155 combination therapy. Analysis of tumor load per treatment group in RAG2^−/−γc^−− mice implanted with UM9 cells. Hybrid scaffolds coated with human MSCs and loaded with luciferase transduced MM cell line UM9 were implanted subcutaneously in the back of RAG2^−/−γc^−− mice (4 scaffolds per mice). Ten days after implantation, the growing tumors were visualized and quantified by BLI. Different groups of mice (n=4) were then either treated with vehicle control (control) or treated with daratumumab, YM155 or daratumumab plus YM155 as indicated. […] Mice were monitored weekly by BLI. Results are expressed as the mean tumor load in each scaffold. […] The statistical differences between mice treated with daratumumab and mice treated with daratumumab plus YM155 were calculated using the Mann-Whitney U-test. […]
The in vivo relevance of the combination of daratumumab with YM155 was tested in the preclinical xenograft model in RAG2^−/−gc^−/− mice, in which MM tumors were grown in a humanized BM-like niche created by subcutaneous implantation of ceramic scaffolds coated with human BMSCs. […] Ten days after implantation, the growing tumors were visualized and quantified by BLI. […] Mice were monitored weekly by BLI. […] Statistical differences between mice treated with daratumumab and mice treated with daratumumab plus YM155 were calculated using the Mann-Whitney U-test.

Another series has as its system MM cells (CD138+ cells). Briefly: Viability of MM cells in BM-MNCs cultured with YM155 by FACS. It counts as cell-based, human. The note with it: BM-MNCs of MM patients; different doses of YM155; 24 hours. As to the method: Effect of YM155 on NK cell viability was evaluated first. BM-MNCs of MM patients were cultured in the presence of different doses of YM155 for 24 hours. Viability of MM cells (CD138^+ cells) and NK cells (CD3^−CD138^−CD56^+ cells) were determined by FACS.

The subject of another series is UM9 MM cells. Briefly: Compartment-specific BLI-based ADCC cytotoxicity assay, UM9. Type of series: cell-based, human. The settings on record: serial concentrations, PBMC:MM 30:1, 4 hours. As to the method:
as §1, with “2010. […]” for “2010.”

A further series has as its system primary CD138+ MM cells. Briefly: FACS based ADCC assay in Multiple Myeloma BM-MNC. Type of series: cell-based, human. The settings on record: presence of autologous MM-BMSCs; both donors; 24 hours. As to the method:
Frozen BM-MNCs from MM patients with 15-35% CD138^+ MM cells were used in FACS-based ADCC assays. The cells were thawed and cultured in 10% HS in RPMI. After 16-20 h, BM-MNCs were counted by trypan blue exclusion and 4×10^4 cells/well were plated in 96 round bottom plates. Daratumumab and/or YM155 were added in the wells as indicated per experiment. After 24 hours, cells were stained with fluorescent conjugated anti-CD138, anti-CD38, anti-CD56 and anti-CD3 antibodies and the survival of primary CD138^+ MM cells in the BM-MNCs was determined by FACS as previously described (Groen et al., Blood 120:e9-e16, 2012). Percentage lysis of MM cells was deduced using the following formula: % lysis cells=1−(counts of surviving CD138^+ cells in treated wells/counts of number of surviving CD138^+ cells in control wells)×100%.
Ability of BMSCs to protect primary MM cells from daratumumab-induced ADCC was also evaluated in a FACS-based ADCC assay using methodology described above. In the assays, BM-MNCs containing at least 15% CD138^+ malignant plasma cells and sufficient numbers of autologous effector NK cells were incubated with daratumumab to induce ADCC. The BM-MNCs were tested either alone or in co-culture with autologous BMSCs to evaluate the effect of BMSCs. FACS-based viability assay was performed after 24 hours of culture to determine CD138^+ surviving cells and calculate lysis. […]

With `COCCn1c2c([n+](Cc3cnccn3)c1C)C(=O)c1ccccc1C2=O` [YM155, 4,9-Dihydro-1-(2-methoxyethyl)-2-methyl-4,9-dioxo-3-(2-pyrazinylmethyl)-1H-naphth[2,3-d]imidazolium bromide], the figures for the lysis of cells entry in the series on RPMI-8226 cells (absence of BMSCs) and in the series with RPMI-8226 cells (presence of BMSCs) were “about 20%” and “no effect”, respectively. For the same molecule, the “viability of NK cells” value in series [1] (BM-MNCs of MM patients, different doses of YM155) is “not affected; also recorded: does not negatively interfere”. For the same molecule, in series [1] (HD-PBMCs and patient BMMNCs, indicated concentrations of YM155), the NK cell lysis result was “does not induce NK cell lysis”. Also, the “tumor growth (BLI)” value in the series with MM cell line UM9 was “more pronounced”. In addition, the “viability of MM cells (CD138+ cells)” value in the series on MM cells (CD138+ cells) is on record as “some toxicity”.
As for “daratumumab: anti-CD38 antibody of IgG1/κ subtype, VH SEQ ID NO: 4 and VL SEQ ID NO: 5”, the results for the lysis of cells entry in the series with RPMI-8226 cells (absence of BMSCs) and in the series on RPMI-8226 cells (presence of BMSCs) were “about 20%” and “about 10%”, respectively. In addition, the “daratumumab-induced ADCC” value in the series with RPMI-8226 cells (absence of BMSCs, serial concentrations, PBMC:MM 30:1) is “dose dependent fashion”; in the series on UM9 MM cells (absence of BMSCs), “dose dependent fashion”. In addition, the “sensitivity to daratumumab-induced ADCC” value is given as “less sensitive” in the series with RPMI-8226 cells (presence of BMSCs, serial concentrations, PBMC:MM 30:1) and “less sensitive” in the series on UM9 MM cells (presence of BMSCs). The “induction of ADCC of primary MM cells” value in the series on primary CD138+ MM cells is “less efficient”. For the same molecule, the “tumor growth (BLI)” value with MM cell line UM9 is “marginal effect”.
